Measured values published in the NIST ThermoML archive (doi:10.1016/j.jct.2019.02.031).

Columns and labels:
[1] = xn = mol fraction of the nth substance listed; settings: 101 kPa, Liquid, x2 = 0; for viscosity: Falling or rolling sphere viscometry; for mass density: Vibrating tube method
[2] = 101 kPa, Liquid; for viscosity: Falling or rolling sphere viscometry; for mass density: Vibrating tube method
[3] = molar heat capacity at constant pressure; settings: 101.33 kPa, Liquid, DSC

CC(C)O [propan-2-ol] + Cn1cc[n+](CCC[N+](C)(C)C)c1.N#C[N-]C#N.N#C[N-]C#N
[1]
Settings | mass density [kg/m3] | viscosity [mPa·s]
283.15 K | 793.67 | 3.352
288.15 K | 789.58 | 2.843
293.15 K | 785.44 | 2.423
298.15 K | 781.24 | 2.08
303.15 K | 776.97 | 1.792
308.15 K | 772.62 | 1.554
313.15 K | 768.18 | 1.352
318.15 K | 763.65 | 1.183
323.15 K | 759.01 | 1.039
328.15 K | 754.26 | 0.918
333.15 K | 749.39 | 0.813

CC(C)O [propan-2-ol]
[2]
Settings | mass density [kg/m3] | viscosity [mPa·s]
283.15 K | 793.67 | 3.352
288.15 K | 789.58 | 2.843
293.15 K | 785.44 | 2.423
298.15 K | 781.24 | 2.08
303.15 K | 776.97 | 1.792
308.15 K | 772.62 | 1.554
313.15 K | 768.18 | 1.352
318.15 K | 763.65 | 1.183
323.15 K | 759.01 | 1.039
328.15 K | 754.26 | 0.918
333.15 K | 749.39 | 0.813

Cn1cc[n+](CCC[N+](C)(C)C)c1.N#C[N-]C#N.N#C[N-]C#N
Settings | mass density, [2] [kg/m3] | molar heat capacity at constant pressure, [3] [J/K/mol] | viscosity, [2] [mPa·s]
283.15 K | 1162.82 | – | 4998
288.15 K | 1159.76 | – | 2736
293.15 K | 1156.74 | – | 1608
298.15 K | 1153.73 | 519.44 | 1007
303.15 K | 1150.76 | 521.65 | 662.9
308.15 K | 1147.8 | 523.85 | 455.4
313.15 K | 1144.89 | 526.06 | 324.6
318.15 K | 1142 | 527.95 | 239.7
323.15 K | 1139.11 | 530.48 | 181.2
328.15 K | 1136.24 | 532.69 | 141.1
333.15 K | 1133.4 | 535.21 | 111.9
338.15 K | – | 537.1 | –
343.15 K | – | 539.62 | –
348.15 K | – | 541.83 | –
353.15 K | – | 543.72 | –
358.15 K | – | 546.25 | –
363.15 K | – | 548.14 | –
368.15 K | – | 550.66 | –
373.15 K | – | 553.19 | –
378.15 K | – | 555.39 | –
383.15 K | – | 557.92 | –
388.15 K | – | 560.12 | –
393.15 K | – | 562.33 | –
398.15 K | – | 564.85 | –
403.15 K | – | 567.06 | –
408.15 K | – | 569.27 | –
413.15 K | – | 571.79 | –
418.15 K | – | 574.32 | –
423.15 K | – | 576.21 | –
